Measurements as given in patent US8124793B2, “Derivatives of ethylene methanedisulfonate as cancer chemotherapeutic agents” (priority 2007, dated 2012).

How the values were obtained:
Type in all cases: cell-based
SF-539 = test: NCI screen, growth of human tumor cells: CNS Cancer SF-539; details: SF-539, 10^−4 molar
Procedure, shortened: (§1)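 At least 60 data points describe each compound tested by NCI. Cancer type, molar concentration in the screen and percent growth make up the recorded data.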

NCI-H460 = test: NCI screen, growth of human tumor cells: Non-Small Cell Lung NCI-H460; details: NCI-H460 (Non-Small Cell Lung), 10^−4 molar
Procedure, shortened: as §1

SK-OV-3 = test: NCI screen, growth of human tumor cells: Ovarian Cancer SK-OV-3; details: SK-OV-3 (Ovarian Cancer), 10^−4 molar
Procedure: (§2) In the NCI screening process, each compound was tested and described by a minimum of 60 data points. The test data include, but are not limited to the type of cancer, the molar concentration used in the screen, and the percent growth of the cancer. In some cases, NMR and elemental analysis were used for structural assignment.

UO-31 = test: NCI screen, growth of human tumor cells: Renal Cancer UO-31; details: UO-31 (Renal Cancer), 10^−4 molar
Procedure, shortened: as §1

DU-145 = test: NCI screen, growth of human tumor cells: Prostate Cancer DU-145; details: DV-145, 10^−4 molar
Procedure, shortened: as §1

RPMI-8226 = test: NCI screen, growth of human tumor cells: Leukemia RPMI-8226; details: RPMI-8226 (Leukemia), 10^−4 molar
Procedure, shortened: as §1

M14 = test: NCI screen, growth of human tumor cells: Melanoma M14; details: M14, 10^−4 molar
Procedure, shortened: as §1

BT-549 = test: NCI screen, growth of human tumor cells: Breast Cancer BT-549; details: BT-549 (Breast Cancer), 10^−4 molar
Procedure, shortened: as §1

MDA-MB-435 = test: NCI screen, growth of human tumor cells: Breast Cancer MDA-MB-435
Procedure, shortened: as §1

SNB-75 = test: NCI screen, growth of human tumor cells: CNS Cancer SNB-75; details: SNB-75 (CNS Cancer), 10^−4 molar
Procedure, shortened: as §1

HOP-18 = test: NCI screen, growth of human tumor cells: Non-Small Cell Lung HOP-18; details: HOP-18 (Non-Small Cell Lung), 10^−4 molar
Procedure: as §2

UACC-257 = test: NCI screen, growth of human tumor cells: Melanoma UACC-257
Procedure, shortened: as §1

SF-268 = test: NCI screen, growth of human tumor cells: CNS Cancer SF-268; details: SF-268 (CNS Cancer), 10^−4 molar
Procedure, shortened: as §1

SK-MEL-5 = test: NCI screen, growth of human tumor cells: Melanoma SK-MEL-5; details: SK-MEL-5, 10^−4 molar
Procedure, shortened: as §1

TK-10 = test: NCI screen, growth of human tumor cells: Renal Cancer TK-10; details: TK-10 (Renal Cancer), 10^−4 molar
Procedure: as §2

SN12C = test: NCI screen, growth of human tumor cells: Renal Cancer SN12C; details: SN12C (Renal Cancer), 10^−4 molar
Procedure, shortened: as §1

HT29 = test: NCI screen, growth of human tumor cells: Colon Cancer HT29; details: HT29 (Colon Cancer), 10^−4 molar
Procedure, shortened: as §1

MCF7/ADR-RES = test: NCI screen, growth of human tumor cells: Breast Cancer MCF7/ADR-RES; details: MCF7/ADR-RES, 10^−4 molar
Procedure, shortened: as §1

COLO205 = test: NCI screen, growth of human tumor cells: Colon Cancer COLO205; details: COLO205 (Colon Cancer), 10^−4 molar
Procedure, shortened: as §1

SK-MEL-28 = test: NCI screen, growth of human tumor cells: Melanoma SK-MEL-28; details: SK-MEL-28, 10^−4 molar
Procedure, shortened: as §1

SNB-19 = test: NCI screen, growth of human tumor cells: CNS Cancer SNB-19; details: SNB-19, 10^−4 molar
Procedure, shortened: as §1

HS 578T = test: NCI screen, growth of human tumor cells: Breast Cancer HS 578T; details: HS 578T (Breast Cancer), 10^−4 molar
Procedure, shortened: as §1

IGROVI = test: NCI screen, growth of human tumor cells: Ovarian Cancer IGROVI; details: IGROVI (Ovarian Cancer), 10^−4 molar
Procedure, shortened: as §1

SF-295 = test: NCI screen, growth of human tumor cells: CNS Cancer SF-295
Procedure, shortened: as §1

NCI-H322M = test: NCI screen, growth of human tumor cells: Non-Small Cell Lung NCI-H322M; details: NCI-H322M, 10^−4 molar
Procedure: as §2

HCT-116 = test: NCI screen, growth of human tumor cells: Colon Cancer HCT-116; details: HCT-116, 10^−4 molar
Procedure, shortened: as §1

NCI-H226 = test: NCI screen, growth of human tumor cells: Non-Small Cell Lung NCI-H226; details: NCI-H226 (Non-Small Cell Lung), 10^−4 molar
Procedure, shortened: as §1

OVCAR-8 = test: NCI screen, growth of human tumor cells: Ovarian Cancer OVCAR-8; details: OVCAR-8 (Ovarian Cancer), 10^−4 molar
Procedure: as §2

HOP-92 = test: NCI screen, growth of human tumor cells: Non-Small Cell Lung HOP-92; details: HOP-92 (Non-Small Cell Lung), 10^−4 molar
Procedure, shortened: as §1

MOLT-4 = test: NCI screen, growth of human tumor cells: Leukemia MOLT-4; details: MOLT-4 (Leukemia), 10^−4 molar
Procedure, shortened: as §1

UACC-62 = test: NCI screen, growth of human tumor cells: Melanoma UACC-62; details: UACC-62 (Melanoma), 10^−4 molar
Procedure, shortened: as §1

EKVX = test: NCI screen, growth of human tumor cells: Non-Small Cell Lung EKVX; details: EKVX (Non-Small Cell Lung), 10^−4 molar
Procedure, shortened: as §1

K562 = test: NCI screen, growth of human tumor cells: Leukemia K562; details: K562 (Leukemia), 10^−4 molar
Procedure, shortened: as §1

HL-60 (TB) = test: NCI screen, growth of human tumor cells: Leukemia HL-60 (TB); details: HL-60 (TB) (Leukemia), 10^−4 molar
Procedure: as §2

KM12 = test: NCI screen, growth of human tumor cells: Colon Cancer KM12; details: KM12 (Colon Cancer), 10^−4 molar
Procedure, shortened: as §1

human cancer cells = test: NCI screen summary over the cancers tested (negative growth of human cancer cells); details: cancers with negative growth / cancers tested
Procedure: as §2
The derivatives in the tables are grouped using the same category as in the tables 1-6.

SR = test: NCI screen, growth of human tumor cells: Leukemia SR; details: SR
Procedure, shortened: as §1

CAKI-1 = test: NCI screen, growth of human tumor cells: Renal Cancer CAKI-1; details: CAKI-1 (Renal Cancer), 10^−4 molar
Procedure, shortened: as §1

MCF 7 = test: NCI screen, growth of human tumor cells: Breast Cancer MCF 7; details: MCF 7 (Breast Cancer), 10^−4 molar
Procedure, shortened: as §1

SK-MEL-2 = test: NCI screen, growth of human tumor cells: Melanoma SK-MEL-2; details: SK-MEL-2 (Melanoma), 10^−4 molar
Procedure, shortened: as §1

HOP-62 = test: NCI screen, growth of human tumor cells: Non-Small Cell Lung HOP-62
Procedure, shortened: as §1

RXF-393 = test: NCI screen, growth of human tumor cells: Renal Cancer RXF-393; details: RXF-393 (Renal Cancer), 10^−4 molar
Procedure, shortened: as §1

NCI-H23 = test: NCI screen, growth of human tumor cells: Non-Small Cell Lung NCI-H23; details: NCI-H23, 10^−4 molar
Procedure, shortened: as §1

OVCAR-5 = test: NCI screen, growth of human tumor cells: Ovarian Cancer OVCAR-5
Procedure, shortened: as §1

OVCAR-3 = test: NCI screen, growth of human tumor cells: Ovarian Cancer OVCAR-3; details: OVCAR-3 (Ovarian Cancer), 10^−4 molar
Procedure, shortened: as §1

KD488 = test: NCI screen, growth of human tumor cells: Lymphoma KD488
SU-DAL-7 = test: NCI screen, growth of human tumor cells: Lymphoma SU-DAL-7; details: SU-DAL-7, 10^−4 molar

CC=CC(=O)C1(CC2=C(C)C(=O)c3ccccc3C2=O)S(=O)(=O)OCCOS1(=O)=O [NSC 731265]
% Growth (SF-539): −79%
percent of growth of human tumor cells (NCI-H460): 5%
percent of growth of human tumor cells (SK-OV-3): −61%
percent of growth of human tumor cells (UO-31): −10%
% Growth (DU-145): −78%
percent of growth of human tumor cells (RPMI-8226): −40%
% Growth (M14): −86%
percent of growth of human tumor cells (BT-549): −54%
% Growth (MDA-MB-435; MDA-MB-435, 10^−4 molar): −71%
% Growth (MDA-MB-435; MDA-MB-435, 10^−5 molar): −66%
percent of growth of human tumor cells (SNB-75): −26%
percent of growth of human tumor cells (HOP-18): −43%
% Growth (UACC-257; UACC-257, 10^−4 molar): −87%
% Growth (UACC-257; UACC-257, 10^−5 molar): 40%
percent of growth of human tumor cells (SF-268): −49%
% Growth (SK-MEL-5): −67%
percent of growth of human tumor cells (TK-10): −10%
percent of growth of human tumor cells (SN12C): −17%
percent of growth of human tumor cells (HT29): −6%
% Growth (MCF7/ADR-RES): −53%
percent of growth of human tumor cells (COLO205): −50%
% Growth (SK-MEL-28): −69%
% Growth (SNB-19): −87%
percent of growth of human tumor cells (HS 578T): −18%
percent of growth of human tumor cells (IGROVI): 4%
percent of growth of human tumor cells (SF-295; SF-295 (CNS Cancer), 10^−4 molar): −57%
% Growth (NCI-H322M): −80%
% Growth (HCT-116): −100%
percent of growth of human tumor cells (NCI-H226): −4%
percent of growth of human tumor cells (OVCAR-8): −38%
percent of growth of human tumor cells (HOP-92): −43%
percent of growth of human tumor cells (MOLT-4): 2%
percent of growth of human tumor cells (UACC-62): −13%
percent of growth of human tumor cells (EKVX): −57%
percent of growth of human tumor cells (K562): 11%
percent of growth of human tumor cells (HL-60 (TB)): 2%
percent of growth of human tumor cells (KM12): −16%
Percentage of cancers showing negative growth cancers tested (human cancer cells; 10^−4 M conc.): 79%
Percentage of cancers showing negative growth cancers tested (human cancer cells; 10^−5 M conc.): 20%
% Growth (SR; 10^−4 molar): 12%
% Growth (SR; 10^−5 molar): 15%
% Growth (SR; 10^−6 molar): 57%
percent of growth of human tumor cells (CAKI-1): −2%
percent of growth of human tumor cells (MCF 7): −8%
percent of growth of human tumor cells (SK-MEL-2): 15%
% Growth (HOP-62; HOP-62, 10^−4 molar): −80%
% Growth (HOP-62; HOP-62, 10^−5 molar): 49%
percent of growth of human tumor cells (RXF-393): −15%
% Growth (NCI-H23): −74%
% Growth (OVCAR-5; OVCAR-5, 10^−4 molar): −83%
% Growth (OVCAR-5; OVCAR-5, 10^−5 molar): 43%
% Growth (OVCAR-5; OVCAR-5, 10^−6 molar): 34%
% Growth (OVCAR-5; OVCAR-5, 10^−7 molar): 40%
% Growth (OVCAR-5; OVCAR-5, 10^−8 molar): 63%
percent of growth of human tumor cells (OVCAR-3): 7%

O=C(c1cccc2ccccc12)C1S(=O)(=O)OCCOS1(=O)=O [NSC 679047, ethylene 1-naphthoylmethanedisulfonate]
% Growth (KD488; KD488, 10^−4 molar): 29%
% Growth (KD488; KD488, 10^−5 molar): 45%
% Growth (KD488; KD488, 10^−6 molar): 56%
% Growth (KD488; KD488, 10^−7 molar): 71%
% Growth (KD488; KD488, 10^−8 molar): 78%
% Growth (SU-DAL-7): 42%
% Growth (SF-295; SF-295, 10^−4 molar): −53%
% Growth (SF-295; SF-295, 10^−5 molar): −50%
% Growth (SF-295; SF-295, 10^−6 molar): −54%
% Growth (SF-295; SF-295, 10^−7 molar): −44%
% Growth (SF-295; SF-295, 10^−8 molar): 70%
Percentage of cancers showing negative growth cancers tested (human cancer cells; 10^−4 M conc.): 10^−4 M conc. = 1/3 = 33%
